Laboratory results from patent US6040307A, “Methods ad compositions of (-) ketoconazole for treating fungal yeast and dermatophyte infections” (priority 1999, dated 2000).
Entries after “also recorded” stand apart in the source; their conditions may differ.

Tests used:
liver = conditions: cited from earlier work
[1] = system: microsporum canis, trichophyton mentagrophytes, candida tropicalis, candida albicans, and other fungi and bacteria; conditions: cited from earlier work
[2] = in vivo, po; cited from earlier work
patients = conditions: human, in vivo; cited from earlier work
[3] = system: isolated guinea pig hearts; experiment: QT duration and action potential duration in isolated guinea pig hearts, perfused with oxygenated Tyrode's solution
Description: The hearts were perfused with an oxygenated Tyrode's solution, containing 0.0; 1.0; 5.0 or 10.0 μM of ketoconazole. QT duration and action potential duration (APD) were measured from cardiac electrodes. APD was measured at 50% (APD-50) and 90% (APD-90). In the table, "N" is the number of hearts, and QT and APD are measured in milliseconds.

synthesis of ergosterol = conditions: fungal cell membranes; cited from earlier work
cardiac repolarization = conditions: in vivo; cited from earlier work
delayed rectifier (Ik) = conditions: cited from earlier work
[4] = of 75 cases adequately followed up

Structure (SMILES): CC(=O)N1CCN(c2ccc(OCC3COC(Cn4ccnc4)(c4ccc(Cl)cc4Cl)O3)cc2)CC1 (racemic) [Ketoconazole, 1-acetyl-4-[4-[[2-(2,4-dichlorophenyl)-2-(1H-imidazole-1-ylmethyl)-1,3-dioxolan-4-yl]methoxy]phenyl]piperazine]
- reports of hepatotoxicity (liver; 1981-1984, United Kingdom): 82 reports
- time for liver function tests to return to normal after treatment was stopped (average) (liver; average): 3.1 months
- hepatocellular injury suggested by serum liver function tests (liver; in vivo): 10 of the 16
- deaths among the cases probably related to treatment (liver; of 16 cases): 3 deaths
- cases possibly related to treatment (liver; [4]): 48 cases
- cases probably related to treatment (liver; [4]): 16 cases
- deaths among the reports of hepatotoxicity (liver; of 82 reports): 5 deaths
- effect of 10% inactivated bovine serum on antifungal activity ([1]; Sabouraud broth containing 10% inactivated bovine serum): enhanced
- inhibition of growth ([1]; Sabouraud broth, 14 days of incubation): Complete or marked inhibition of growth
- major route of excretion [2]: via the bile into the intestinal tract
- metabolism [2]: eventually metabolized to several inactive metabolites
- serum concentration [2]: a linear increase in serum concentration
- gastrointestinal side effects, occurrence in patients (patients): 5-10 % of patients
- torsades de pointes (patients): torsades de pointes, has been reported
- APD-50 ([3]; 1.0 μM, N = 2 hearts, baseline 145 ± 5): 149 ± 1 milliseconds
- APD-90 ([3]; 1.0 μM, N = 2 hearts, baseline 185 ± 10): 195 ± 5 milliseconds
- QT ([3]; 1.0 μM, N = 2 hearts, baseline 230 ± 10): 232 ± 9 milliseconds
- APD-50 ([3]; 5.0 μM, N = 3 hearts, baseline 147 ± 5): 163 ± 5 milliseconds
- APD-90 ([3]; 5.0 μM, N = 3 hearts, baseline 187 ± 9): 221 ± 8 milliseconds
- QT ([3]; 5.0 μM, N = 3 hearts, baseline 233 ± 9): 261 ± 8 milliseconds
- APD-50 ([3]; 10.0 μM, N = 3 hearts, baseline 140 ± 8): 173 ± 2 milliseconds
- APD-90 ([3]; 10.0 μM, N = 3 hearts, baseline 177 ± 14): 233 ± 9 milliseconds
- QT duration and action potential duration (in words) ([3]; isolated guinea pig hearts): increases QT duration and action potential duration
- arrhythmogenic effect (in words) ([3]; isolated guinea pig hearts, listed as racemic ketoconazole): may be associated with an increased risk of cardiac arrhythmia; also recorded: indicative of a potential arrhythmogenic effect
- synthesis of ergosterol (synthesis of ergosterol): impairs the synthesis of ergosterol

Structure (SMILES): CCN(CC)CCNC(=O)c1ccc(NC(C)=O)cc1 [acetyl-procainamide]
- prolongation of cardiac repolarization (cardiac repolarization): cause a prolongation of cardiac repolarization
- torsades de pointes (side effect) (cardiac repolarization): well known side effect
- block of cellular potassium channel delayed rectifier (Ik) (delayed rectifier (Ik)): block a cellular potassium channel called the delayed rectifier (Ik)

Structure (SMILES): C=C[C@H]1C[N@@]2CC[C@H]1C[C@@H]2[C@@H](O)c1ccnc2ccc(OC)cc12 [quinidine]
- prolongation of cardiac repolarization (cardiac repolarization): cause a prolongation of cardiac repolarization
- torsades de pointes (side effect) (cardiac repolarization): well known side effect
- block of cellular potassium channel delayed rectifier (Ik) (delayed rectifier (Ik)): block a cellular potassium channel called the delayed rectifier (Ik)

Structure (SMILES): CC(C)NCC(O)c1ccc(NS(C)(=O)=O)cc1 (stereo not shown) [sotalol]
- prolongation of cardiac repolarization (cardiac repolarization): cause a prolongation of cardiac repolarization
- torsades de pointes (side effect) (cardiac repolarization): well known side effect
- block of cellular potassium channel delayed rectifier (Ik) (delayed rectifier (Ik)): block a cellular potassium channel called the delayed rectifier (Ik)
